From patent US20040044000A1, “Isoquinoline derivatives as matrix metalloproteinase inhibitors” (priority 2002, published 2004)

Tests used:
Format in all cases: biochemical
[1] = molecular target: T1, MMP-13 catalytic domain (MMP-13CD) (Homo sapiens, UniProt P45452); assay: Inhibition of MMP-13 catalytic domain (thiopeptolide substrate hydrolysis); details: Biological Table 1; read-out: MMP-13CD IC50
T1 construct: use the catalytic domain of the MMP-13 enzyme, namely matrix metalloproteinase-13 catalytic domain (“MMP-13CD”), rather than the corresponding full-length enzyme
In short: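 Catalytic domain of MMP-13 (MMP-13CD) with 100 μM Ac-Pro-Leu-Gly-thioester-Leu-Leu-Gly-OEt in 50 mM HEPES pH 7.0, 10 mM CaCl2, 1 mM DTNB at 22° C. Hydrolysis followed by absorbance at 405 nm; IC50 (μM) from multiple compound concentrations.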

[2] = molecular target: T2, MMP-12 catalytic domain (MMP-12CD) (Homo sapiens, UniProt P39900); assay: Inhibition of MMP-12 catalytic domain (thiopeptolide substrate hydrolysis)
T2 construct: MMP-3 catalytic domain, MMP-12 catalytic domain, MMP-14 catalytic domain, and MMP-17 catalytic domain
T2 sequence (P39900 106-263 limits assumed, species assumed): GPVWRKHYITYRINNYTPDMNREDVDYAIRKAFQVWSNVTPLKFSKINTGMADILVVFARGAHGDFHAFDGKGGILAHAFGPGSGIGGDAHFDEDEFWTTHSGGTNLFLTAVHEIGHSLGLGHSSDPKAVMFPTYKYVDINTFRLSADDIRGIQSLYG
Excerpt: (§1) The assays measure the amount by which a test compound reduces the hydrolysis of a thiopeptolide substrate catalyzed by a matrix metalloproteinase enzyme. Such assays are described in detail by Ye et al., in Biochemistry, 1992;31(45):11231-11235, which is incorporated herein by reference. One such assay is described below in Biological Method 1.
(§2) Thiopeptolide substrates show virtually no decomposition or hydrolysis at or below neutral pH in the absence of a matrix metalloproteinase enzyme. A typical thiopeptolide substrate commonly utilized for assays is Ac-Pro-Leu-Gly-thioester-Leu-Leu-Gly-OEt. A 100 μL assay mixture will contain 50 mM of N-2-hydroxyethylpiperazine-N′-2-ethanesulfonic acid buffer (“HEPES,” pH 7.0), 10 mM CaCl2, 100 μM thiopeptolide substrate, and 1 mM 5,5′-dithio-bis-(2-nitro-benzoic acid) (DTNB). The thiopeptolide substrate concentration may be varied, for example from 10 to 800 μM to obtain Km and Kcat values. The change in absorbance at 405 nm is monitored on a Thermo Max microplate reader (molecular Devices, Menlo Park, Calif.) at room temperature (22° C.). The calculation of the amount of hydrolysis of the thiopeptolide substrate is based on E412=13600 M^−1 cm^−1 for the DTNB-derived product 3-carboxy-4-nitrothiophenoxide. Assays are carried out with and without matrix metalloproteinase inhibitor compounds, and the amount of hydrolysis is compared for a determination of inhibitory activity of the test compounds.
(§3) Test compounds were evaluated at various concentrations in order to determine their respective IC50 values, the micromolar concentration of compound required to cause a 50% inhibition of catalytic activity of the respective enzyme.
(§4) The test described above for the inhibition of MMP-13 may also be adapted and used to determine the ability of the compounds of Formula I to inhibit the matrix metalloproteases MMP-1, MMP-2, MMP-3, MMP-7, MMP-9, MMP-12 and MMP-14.

[3] = molecular target: MMP-14 catalytic domain (MMP-14CD) (Homo sapiens, UniProt P50281); assay: Inhibition of MMP-14 catalytic domain (thiopeptolide substrate hydrolysis)
Excerpt: as §1, §2, §3, §4

[4] = molecular target: MMP-3 catalytic domain (MMP-3CD) (Homo sapiens, UniProt P08254); assay: Inhibition of MMP-3 catalytic domain (thiopeptolide substrate hydrolysis, MES pH 6.0)
MMP-3 catalytic domain (MMP-3CD), sequence (P08254 100-272 limits assumed, species assumed): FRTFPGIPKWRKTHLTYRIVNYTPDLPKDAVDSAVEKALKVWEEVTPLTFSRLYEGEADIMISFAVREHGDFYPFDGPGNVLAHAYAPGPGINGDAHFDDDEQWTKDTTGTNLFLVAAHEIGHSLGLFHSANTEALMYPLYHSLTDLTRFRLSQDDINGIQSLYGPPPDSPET
Excerpt: as §1, §2, §3
It should be appreciated that the assay buffer used with MMP-3CD was 50 mM N-morpholinoethane sulfonate (“MES”) at pH 6.0 rather than the HEPES buffer at pH 7.0 described above.

[5] = molecular target: T3, MMP-17 catalytic domain (MMP-17CD) (Homo sapiens, UniProt Q9ULZ9); assay: Inhibition of MMP-17 catalytic domain (thiopeptolide substrate hydrolysis)
T3 construct: MMP-3 catalytic domain, MMP-12 catalytic domain, MMP-14 catalytic domain, and MMP-17 catalytic domain
T3 sequence (Q9ULZ9 126-295 limits assumed): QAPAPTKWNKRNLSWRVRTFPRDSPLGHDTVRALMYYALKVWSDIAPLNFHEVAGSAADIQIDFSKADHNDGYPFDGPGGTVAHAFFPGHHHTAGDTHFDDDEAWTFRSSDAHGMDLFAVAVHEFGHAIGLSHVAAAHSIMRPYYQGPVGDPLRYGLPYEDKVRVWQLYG
Excerpt: as §1, §2, §3

| SMILES | IC50 [1] [µM] | IC50 [2] [µM] | IC50 [3] [µM] | IC50 [4] [µM] | IC50 [5] [µM] |
| --- | --- | --- | --- | --- | --- |
| O=C1CC(NC(=O)c2ccc(Cn3ccc4ccc(C#CCc5ccccc5)cc4c3=O)cc2)=NN1 [Example 22, N-(5-oxo-4,5-dihydro-1H-pyrazol-3-yl)-4-[1-oxo-7-(3-phenylprop-1-ynyl)-1H-isoquinolin-2-ylmethyl]benzamide] | 0.019 | > 100 | 16 | 4.1 | 14 |
| CSc1ccc(CNC(=O)c2ccc3ccn(Cc4ccc(C#N)cc4)c(=O)c3c2)cc1 [Example 40, 2-(4-cyanobenzyl)-1-oxo-1,2-dihydro-isoquinoline-7-carboxylic Acid 4-methylsulfanyl-benzylamide] | 0.43 | 6.8 | > 10 | 6.2 | > 10 |
| Cc1ccc(CNC(=O)c2ccc3ccn(Cc4ccc(-c5nn[nH]n5)cc4)c(=O)c3c2)cc1 [Example 60, 1-oxo-2-[4-(2H-tetrazol-5-yl)benzyl]-1,2-dihydroisoquinoline-7-carboxylic Acid 4-methyl-benzylamide] | 0.22 | 22 | > 100 | 31 | > 100 |
| O=C(O)c1ccc(Cn2ccc3ccc(C(=O)NCc4ccncc4)cc3c2=O)cc1 [Example 29, 4-{1-oxo-7-[(pyridin-4-ylmethyl)carbamoyl]-1H-isoquinolin-2-ylmethyl}benzoic Acid] | 0.19 | > 100 | > 100 | > 100 | > 100 |
| COc1cc(CNC(=O)c2ccc3ccn(Cc4ccc(S(C)(=O)=O)cc4)c(=O)c3c2)ccn1 [Example 51, 2-(4-methane-sulfonylbenzyl)-1-oxo-1,2-dihydro-isoquinoline-7-carboxylic Acid (2-methoxypyridin-4-ylmethyl)amide] | 0.68 | > 30 | > 100 | > 100 | > 100 |
| O=C(NCCN1CCOCC1)c1ccc(Cn2ccc3ccc(C#CCc4ccccc4)cc3c2=O)cc1 [Example 21, N-(2-morpholin-4-yl-ethyl)-4-[1-oxo-7-(3-phenylprop-1-ynyl)-1H-isoquinolin-2-ylmethyl]-benzamide] | 0.067 | > 100 | > 100 | 22 | > 3 |
| O=C(O)c1ccc(Cn2ccc3ccc(C(=O)NCc4ccc(F)cc4)cc3c2=O)cc1 [Example 31, 4-[7-(4-fluoro-benzylcarbamoyl)-1-oxo-1H-isoquinolin-2-ylmethyl]benzoic Acid] | 0.03 | > 100 | > 100 | > 100 | > 100 |
| O=c1c2cc(C#CCc3ccccc3)ccc2ccn1Cc1ccc(-c2nn[nH]n2)cc1 [Example 18, 7-(3-phenylprop-1-ynyl)-2-[4-(2H-tetrazol-5-yl)benzyl]-2H-isoquinolin-1-one] | 0.0029 | > 30 | > 30 | 4 | > 30 |
| O=C(O)c1ccc(Cn2ccc3ccc(C(=O)NCc4cccnc4)cc3c2=O)cc1 [Example 30, 4-{1-oxo-7-[(pyridin-3-ylmethyl)carbamoyl]-1H-isoquinolin-2-ylmethyl}benzoic Acid] | 0.4 | > 100 | > 100 | > 100 | > 100 |
| CSc1ccc(CNC(=O)c2ccc3ccn(Cc4ccc(-c5nn[nH]n5)cc4)c(=O)c3c2)cc1 [Example 61, 1-oxo-2-[4-(2H-tetrazol-5-yl)benzyl]-1,2-dihydroisoquinoline-7-carboxylic Acid 4-methyl-sulfanylbenzylamide] | 0.032 | 5 | > 10 | 12 | > 10 |
| O=C(NN1CCCCC1)c1ccc(Cn2ccc3ccc(C#CCc4ccccc4)cc3c2=O)cc1 [Example 20, 4-[1-oxo-7-(3-phenylprop-1-ynyl)-1H-isoquinolin-2-ylmethyl]-N-piperidin-1-yl-benzamide] | 0.039 | > 30 | > 30 | 8 | 2.3 |
